Assays:
CYP1A2 = molecular target: T1, CYP1A2 (Homo sapiens, UniProt P05177); assay: Inhibition of human liver microsomal CYP1A2 (phenacetin probe); format: in vitro ADME; conditions: human liver microsomes
T1 construct: co-incubated with human liver microsomes; from tissue; host or cells: human liver microsomes
T1 sequence (P05177 1-516): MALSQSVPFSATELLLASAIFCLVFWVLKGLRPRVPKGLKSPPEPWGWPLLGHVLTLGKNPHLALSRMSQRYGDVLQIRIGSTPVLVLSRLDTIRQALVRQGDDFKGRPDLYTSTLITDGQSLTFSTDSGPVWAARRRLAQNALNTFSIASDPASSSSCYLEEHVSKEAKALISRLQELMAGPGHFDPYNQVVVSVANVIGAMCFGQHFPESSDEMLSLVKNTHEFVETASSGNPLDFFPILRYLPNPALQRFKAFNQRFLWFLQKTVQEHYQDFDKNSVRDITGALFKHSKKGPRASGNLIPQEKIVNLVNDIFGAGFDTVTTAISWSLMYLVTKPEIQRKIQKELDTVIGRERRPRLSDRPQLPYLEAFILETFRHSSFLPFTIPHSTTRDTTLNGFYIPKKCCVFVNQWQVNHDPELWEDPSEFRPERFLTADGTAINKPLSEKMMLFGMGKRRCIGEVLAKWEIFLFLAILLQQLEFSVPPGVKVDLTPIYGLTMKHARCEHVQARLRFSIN
Protocol: (§1) Experimental Example 6: Inhibitory effect on activity of isoenzymes (CYP1A2, CYP2C9, CYP2C19, CYP2D6 and CYP3A4) of human liver microsomal cytochrome P450 A total of 5 specific probe substrates of 5 isoenzymes of CYP, namely phenacetin (CYP1A2), diclofenac (CYP2C9), (S)-mephenytoin (CYP2C19), dextromethorphan (CYP2D6) and midazolam (CYP3A4) were each co-incubated with human liver microsomes and the compound of formula (I), and then reduced nicotinamide adenine dinucleotide phosphate (NADPH) was added to initiate the reaction. After the reaction was completed, the samples were treated, and the concentrations of 5 metabolites (acetaminophen, 4′-hydroxydiclofenac, 4′-hydroxymephenytoin, dextrorphan and l′-hydroxymidazolam) generated from the specific substrates were quantitatively detected by lC-MS/MS to calculate the correcnondino- half maximal inhibitory concentrationc (IC50)

[1] = system: TNF-α in human peripheral blood mononuclear cells; assay: Inhibitory activity against TNF-α in LPS-stimulated hPBMCs (ELISA); format: cell-based; conditions: PBMC, 1 ng/mL LPS, 24 h, read-out: hPBMC IC50 (TNF-α)
Description: Experimental Example 8: In vitro detection of the inhibitory activity of the compound against TNF-α in human peripheral blood mononuclear cells Objective: to measure the anti-inflammatory activity at cellular level of the test compound based on the level of TNF-α in human peripheral blood mononuclear cells (hPBMCs).
Procedures: • 1. Normal human whole blood was collected into an EDTA anticoagulation tube; • 2. The PBMC was separated by Ficoll density gradient centrifugation and counted, and the cell concentration was adjusted to 2×10^6 cells/mL; • 3. To each well of a U-bottom 96-well plate were added 2×10^5 cells, 1 ng/mL LPS, and solutions of the compound of formula (I) in DMSO at concentrations of […], 1 μM, 100 nM, 10 nM, 1 nM, 100 pM and 10 pM, with a system volume of 200 μL per well; • 4. The mixture was incubated for 24 h, and then the supernatant was collected; • 5. The level of TNF-α in the supernatant was detected by ELISA, an inhibition curve was fitted using Graphpad Prism software, and the IC50 was calculated.

[2] = system: cigarette smoke-induced rat acute lung injury model; assay: Pharmacodynamic study in cigarette smoke-induced rat acute lung injury model; format: in vivo, Sprague-Dawley rats; conditions: rats, atomized 0.05 or 0.15 mg/mL for 30 min daily
Protocol: Experimental Example 7: Pharmacodynamic study in cigarette smoke-induced rat acute lung injury model
Male Sprague-Dawley rats (supplied by Shanghai SLAC Laboratory Animal Co., Ltd.), SPF grade, approximately 200 g.
Procedures • 1. Animals were randomly divided into 6 groups according to body weight after arrival and a one-week acclimation; • 2. On days 1-3 of the experiment, the corresponding compound of each group was atomized for 30 min. Then the animals in the model group and the treatment groups were exposed to cigarette smoke for 1 h, and after a 4-h interval, the animals were exposed to cigarette smoke again for 1 h. Cigarette smoke was given twice daily for 3 consecutive days. The control group animals were exposed to room air; • 3. On day 4 of the experiment, the corresponding compound of each group was atomized for 30 min, and then the animals in the model group and the treatment groups were given the atomized 150 μg/mL LPS for 15 min by inhalation. After 3 h (from the time starting atomization), the animals were exposed to cigarette smoke for 1 h, and then the lung function (Penh and F) of the animals was examined; bronchoalveolar lavage fluid (BALF) was collected for cell counting after the animals were euthanized with CO2. • 4. […]

recombinant human PDE4B = molecular target: T2, recombinant human PDE4B (Homo sapiens, UniProt Q07343); assay: In vitro inhibitory activity against PDE 4B enzyme (fluorescence polarization); format: biochemical; conditions: 1 μM cAMP substrate
T2 construct: amino acid 305-end; GST (N); host or cells: Sf9 insect cells (baculovirus)

CYP2C19 = molecular target: T3, CYP2C19 (Homo sapiens, UniProt P33261); assay: Inhibition of human liver microsomal CYP2C19 ((S)-mephenytoin probe); format: in vitro ADME; conditions: human liver microsomes
T3 construct: co-incubated with human liver microsomes; from tissue; host or cells: human liver microsomes
Protocol: as §1

[3] = Pharmacokinetic study in beagle dogs; format: in vivo
Protocol: Experimental Example 5: Pharmacokinetic study in beagle dogs In this study, male beagle dogs were selected as test animals, and LC-MS/MS was used for quantitatively measuring the drug concentration in plasma of beagle dogs at different time points after intravenous injection or intragastric administration of the compound of formula (I) so as to evaluate the pharmacokinetics of the compound of formula (I) in beagle dogs.
The clear solution of the compound of formula (I) was injected into two beagle dogs of 10-12 kg via the cephalic vein or saphenous vein, and the clear solution of the compound of formula (I) was administered intragastrically to two beagle dogs of 10-12 kg (overnight fasted). The animals were all subjected to approximately […] blood collection each time from peripheral veins at 0.0333, 0.0833, 0.25, 0.5, 1, 2, 4, 6, 8 and 24 h post-dose, and the blood was transferred into commercial centrifuge tubes containing 0.85-1.15 mg of K2 EDTA.2H20 anticoagulant, and plasma was separated by centrifugation at 3000 g for 10 min at 4° C. The plasma concentration was measured by LC-MS/MS, and the relevant pharmacokinetic parameters were calculated using WinNonlinTM Version 6.3 (Pharsight, Mountain View, Calif.), a pharmacokinetic software, with a non-compartmental model linear-log trapezoidal method.

[4] = intragastric administration 3 mg/kg

T2 sequence (Q07343 305-736 limits assumed): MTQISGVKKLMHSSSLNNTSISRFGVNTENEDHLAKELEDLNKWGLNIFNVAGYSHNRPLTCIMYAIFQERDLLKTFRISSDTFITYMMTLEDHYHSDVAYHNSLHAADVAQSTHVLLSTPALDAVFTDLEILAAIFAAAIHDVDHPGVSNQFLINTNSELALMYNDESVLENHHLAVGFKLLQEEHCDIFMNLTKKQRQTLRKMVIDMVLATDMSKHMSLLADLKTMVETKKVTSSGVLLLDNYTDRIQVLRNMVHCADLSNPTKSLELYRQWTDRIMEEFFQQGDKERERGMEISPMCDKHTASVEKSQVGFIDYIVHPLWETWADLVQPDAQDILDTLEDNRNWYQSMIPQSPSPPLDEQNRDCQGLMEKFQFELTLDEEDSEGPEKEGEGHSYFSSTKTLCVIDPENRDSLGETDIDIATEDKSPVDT
T3 sequence (P33261 whole entry): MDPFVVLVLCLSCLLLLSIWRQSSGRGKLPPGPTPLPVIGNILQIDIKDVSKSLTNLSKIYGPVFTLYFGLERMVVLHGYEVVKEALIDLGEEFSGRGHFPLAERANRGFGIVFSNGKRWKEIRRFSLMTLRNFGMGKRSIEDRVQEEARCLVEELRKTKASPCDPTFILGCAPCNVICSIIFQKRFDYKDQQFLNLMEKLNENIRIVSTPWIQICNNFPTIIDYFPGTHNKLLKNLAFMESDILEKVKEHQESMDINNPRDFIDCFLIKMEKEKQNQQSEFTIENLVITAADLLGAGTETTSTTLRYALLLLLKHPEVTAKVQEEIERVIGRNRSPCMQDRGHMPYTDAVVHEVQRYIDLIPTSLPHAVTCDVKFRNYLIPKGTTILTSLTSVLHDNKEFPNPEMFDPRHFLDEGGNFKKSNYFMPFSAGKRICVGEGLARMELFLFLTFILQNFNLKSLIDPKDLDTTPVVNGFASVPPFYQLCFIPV

- IC50 (CYP1A2): ≥ 50000 nM
- IC50 [1]: 29.2 nM
- IC50 (recombinant human PDE4B): 0.41 nM
- IC50 (CYP2C19): ≥ 50000 nM
- Area under plasma concentration-time curve (0-inf) [3, 4]: 0.123 µM·h
- Peak concentration [3, 4]: 59.4 nM
- Time to peak [3, 4]: 0.6 h
- Area under plasma concentration-time curve (0-inf) ([3]; intravenous injection 0.5 mg/kg): 0.21 µM·h
SMILES: CCOc1cc2c(cc1OC)-c1c/c(=N\c3c(C)cc(C)cc3C)n(CCNC(=O)c3c(O)nnn3C)c(=O)n1CC2 [Compound of formula (I)]
- Number of white blood cells in the bronchoalveolar lavage fluid ([2]; FIG. 5): effectively reduce
- Airway resistance index Penh (Mch challenge pulmonary function test) ([2]; FIG. 6): effectively reduce

— US20230060174A1, “PHARMACEUTICAL COMPOSITION OF TRICYCLIC PDE3/PDE4 DUAL INHIBITOR COMPOUND” (CHIA TAI TIANQING PHARMACEUTICAL GROUP CO., LTD., priority 2020, published 2023)
